Active and inactive are the calls of the source. The rule behind the calls is not given here.
Legend:
[1] = target: T1, Nuclear receptor subfamily 1 group D member 1 (Homo sapiens, UniProt P20393); experiment: Agonist activity at his6-tagged human REV-ERBalpha LBD (281 to 614 residues) expressed in Escherichia coli assessed as increase in SMRT corepressor peptide […] by TR-FRET assay incubated for 2 hrs by TR-FRET assay
T1 sequence (P20393 whole entry): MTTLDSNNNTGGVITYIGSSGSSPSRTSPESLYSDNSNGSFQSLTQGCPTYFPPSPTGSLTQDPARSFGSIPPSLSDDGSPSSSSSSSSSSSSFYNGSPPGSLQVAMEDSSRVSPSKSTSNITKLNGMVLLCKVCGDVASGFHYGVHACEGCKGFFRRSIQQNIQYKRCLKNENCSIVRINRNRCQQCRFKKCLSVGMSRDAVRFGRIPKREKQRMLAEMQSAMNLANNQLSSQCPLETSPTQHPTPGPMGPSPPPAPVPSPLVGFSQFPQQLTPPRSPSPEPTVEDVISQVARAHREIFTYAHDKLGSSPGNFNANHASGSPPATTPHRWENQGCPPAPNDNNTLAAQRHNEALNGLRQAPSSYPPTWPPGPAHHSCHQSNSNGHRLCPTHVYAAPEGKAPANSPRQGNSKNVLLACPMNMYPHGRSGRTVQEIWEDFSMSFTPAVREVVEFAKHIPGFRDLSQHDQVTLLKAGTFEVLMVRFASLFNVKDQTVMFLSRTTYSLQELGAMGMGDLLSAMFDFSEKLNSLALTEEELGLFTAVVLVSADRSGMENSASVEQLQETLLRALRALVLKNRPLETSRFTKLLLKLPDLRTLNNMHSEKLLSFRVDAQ

CYP3A4 = CYP3A4 (Homo sapiens, UniProt P08684); experiment: Inhibition of CYP3A4 (unknown origin) at 10 uM relative to control; format: ADME
Sequence of CYP3A4 (P08684 whole entry): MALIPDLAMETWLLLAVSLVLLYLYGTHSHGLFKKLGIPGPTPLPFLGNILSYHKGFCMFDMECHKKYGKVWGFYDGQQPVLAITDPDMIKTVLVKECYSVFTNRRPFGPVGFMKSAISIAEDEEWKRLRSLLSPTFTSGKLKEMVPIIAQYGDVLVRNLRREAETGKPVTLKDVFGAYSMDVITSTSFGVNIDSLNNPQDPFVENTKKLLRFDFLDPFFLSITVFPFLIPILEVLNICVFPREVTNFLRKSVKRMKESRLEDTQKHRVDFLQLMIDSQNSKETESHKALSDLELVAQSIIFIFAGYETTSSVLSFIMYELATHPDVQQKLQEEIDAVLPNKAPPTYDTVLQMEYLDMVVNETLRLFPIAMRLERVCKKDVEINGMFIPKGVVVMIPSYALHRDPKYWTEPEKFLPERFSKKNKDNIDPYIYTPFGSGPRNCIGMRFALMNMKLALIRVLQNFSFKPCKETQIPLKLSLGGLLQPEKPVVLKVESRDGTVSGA

[2] = Metabolic stability in mouse liver microsome assessed as half life; format: ADME; conditions: liver microsomes
[3] = Metabolic stability in human liver microsome assessed as half life; format: ADME; conditions: liver microsomes
[4] = Cmax in mouse at 50 mg/kg, ip measured at 2 hrs; format: ADME, organism-based; design: dose 50 mg/kg, time 2 hrs, route ip; conditions: in vivo
[5] = Cmax in mouse at 50 mg/kg, ip measured for 12 hrs; format: ADME, organism-based; design: time 12 hrs, dose 50 mg/kg, route ip; conditions: in vivo
[6] = target: T1, Nuclear receptor subfamily 1 group D member 1; experiment: Agonist activity at REV-ERBalpha LBD in HEK293 cells co-transfected with pG5-UAS pCMV-Gal4 incubated for 18 hrs by multimode plate reader analysis; format: cell-based
[7] = target: T2, Nuclear receptor subfamily 1 group D member 2 (Homo sapiens) (UniProt Q14995); experiment: Agonist activity at human REV-ERBbeta
T2 sequence (whole entry): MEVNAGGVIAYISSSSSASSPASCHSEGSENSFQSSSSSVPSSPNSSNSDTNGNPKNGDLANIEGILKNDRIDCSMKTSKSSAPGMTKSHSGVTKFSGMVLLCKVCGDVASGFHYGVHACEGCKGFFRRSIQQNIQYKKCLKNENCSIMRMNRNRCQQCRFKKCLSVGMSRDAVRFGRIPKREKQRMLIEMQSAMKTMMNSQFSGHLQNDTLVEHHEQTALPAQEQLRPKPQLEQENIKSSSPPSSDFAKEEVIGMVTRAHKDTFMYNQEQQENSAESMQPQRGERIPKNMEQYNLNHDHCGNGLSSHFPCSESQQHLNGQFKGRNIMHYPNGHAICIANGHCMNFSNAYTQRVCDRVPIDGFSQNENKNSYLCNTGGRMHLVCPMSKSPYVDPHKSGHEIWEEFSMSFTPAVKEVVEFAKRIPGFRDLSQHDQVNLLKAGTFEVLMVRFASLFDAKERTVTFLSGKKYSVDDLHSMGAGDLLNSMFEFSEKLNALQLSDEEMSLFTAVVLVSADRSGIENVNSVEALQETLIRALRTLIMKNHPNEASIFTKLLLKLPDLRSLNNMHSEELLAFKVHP

CYP2D6 = CYP2D6 (Homo sapiens, UniProt P10635); experiment: Inhibition of CYP2D6 (unknown origin) at 10 uM relative to control; format: ADME
Sequence of CYP2D6 (P10635 whole entry): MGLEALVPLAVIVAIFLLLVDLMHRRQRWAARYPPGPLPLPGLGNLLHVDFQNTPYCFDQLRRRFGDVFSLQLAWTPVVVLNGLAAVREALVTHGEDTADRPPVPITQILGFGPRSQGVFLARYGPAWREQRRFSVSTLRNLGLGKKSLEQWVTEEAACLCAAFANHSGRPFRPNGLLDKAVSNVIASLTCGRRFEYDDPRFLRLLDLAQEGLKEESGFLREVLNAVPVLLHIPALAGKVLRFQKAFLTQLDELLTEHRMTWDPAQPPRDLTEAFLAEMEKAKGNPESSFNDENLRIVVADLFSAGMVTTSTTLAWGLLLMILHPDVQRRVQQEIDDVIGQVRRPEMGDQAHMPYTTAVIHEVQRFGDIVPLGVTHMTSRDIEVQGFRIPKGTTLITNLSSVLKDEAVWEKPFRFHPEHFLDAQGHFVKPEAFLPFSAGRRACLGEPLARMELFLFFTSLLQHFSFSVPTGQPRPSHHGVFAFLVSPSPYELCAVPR

CYP1A2 = target: T3, CYP1A2 (Homo sapiens, UniProt P05177); experiment: Inhibition of CYP1A2 (unknown origin) at 10 uM relative to control; format: ADME
T3 sequence (P05177 whole entry): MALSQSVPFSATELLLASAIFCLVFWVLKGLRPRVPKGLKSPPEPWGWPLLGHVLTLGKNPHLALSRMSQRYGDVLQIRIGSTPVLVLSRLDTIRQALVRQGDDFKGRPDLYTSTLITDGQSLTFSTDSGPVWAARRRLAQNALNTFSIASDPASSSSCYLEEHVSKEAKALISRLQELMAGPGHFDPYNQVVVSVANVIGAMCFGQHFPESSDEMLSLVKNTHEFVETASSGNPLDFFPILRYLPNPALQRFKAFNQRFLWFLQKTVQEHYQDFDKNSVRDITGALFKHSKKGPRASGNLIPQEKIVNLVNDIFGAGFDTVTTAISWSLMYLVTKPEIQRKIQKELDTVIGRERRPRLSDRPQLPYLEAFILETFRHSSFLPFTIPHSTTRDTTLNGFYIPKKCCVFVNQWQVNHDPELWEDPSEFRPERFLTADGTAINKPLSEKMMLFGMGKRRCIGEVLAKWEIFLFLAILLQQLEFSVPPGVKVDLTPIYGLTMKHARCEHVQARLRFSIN

CYP2C9 = CYP2C9 (Homo sapiens, UniProt P11712); experiment: Inhibition of CYP2C9 (unknown origin) at 10 uM relative to control; format: ADME
Sequence of CYP2C9 (P11712 whole entry): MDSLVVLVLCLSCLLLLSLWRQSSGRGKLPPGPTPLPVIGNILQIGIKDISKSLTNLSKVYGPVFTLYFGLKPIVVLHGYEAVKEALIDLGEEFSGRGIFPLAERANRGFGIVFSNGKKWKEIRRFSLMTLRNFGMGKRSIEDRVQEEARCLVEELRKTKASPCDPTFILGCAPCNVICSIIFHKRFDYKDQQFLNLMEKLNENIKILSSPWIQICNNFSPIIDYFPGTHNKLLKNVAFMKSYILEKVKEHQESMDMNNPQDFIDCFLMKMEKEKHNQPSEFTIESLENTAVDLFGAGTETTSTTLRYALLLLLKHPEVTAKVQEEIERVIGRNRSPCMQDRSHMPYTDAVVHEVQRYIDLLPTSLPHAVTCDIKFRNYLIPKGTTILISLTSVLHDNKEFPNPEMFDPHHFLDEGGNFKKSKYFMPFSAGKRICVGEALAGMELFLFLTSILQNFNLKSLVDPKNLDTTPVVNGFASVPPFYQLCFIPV

Mus musculus [8] = experiment: Protection against experimental autoimmune encephalomyelitis C57BL/6 mouse model assessed as disease onset at 25 to 50 mg/kg, ip bid; format: functional, organism-based; conditions: dose 25-50 mg/kg
Mus musculus [9] = experiment: Protection against experimental autoimmune encephalomyelitis C57BL/6 mouse model assessed as reduction in disease severity at 25 to 50 mg/kg, ip bid; format: functional, organism-based; conditions: dose 25-50 mg/kg
[10] = Toxicity in experimental autoimmune encephalomyelitis C57BL/6 mouse model assessed as animal weight loss at 25 to 50 mg/kg, ip bid; format: organism-based; conditions: in vivo, dose 25-50 mg/kg
Mus musculus [11] = experiment: Protection against experimental autoimmune encephalomyelitis C57BL/6 mouse model assessed as decrease in frequency of T cells at 25 to 50 mg/kg, ip bid by flow cytometry analysis; format: functional, organism-based; conditions: T-cell, dose 25-50 mg/kg
Mus musculus [12] = experiment: Protection against experimental autoimmune encephalomyelitis C57BL/6 mouse model assessed as decrease in number of T cells at 25 to 50 mg/kg, ip bid by flow cytometry analysis; format: functional, organism-based; conditions: T-cell, dose 25-50 mg/kg
Mus musculus [13] = experiment: In-vivo agonist activity at REV-ERBalpha in experimental autoimmune encephalomyelitis C57BL/6 mouse model assessed as reduction in bmal1 mRNA expression by RT-PCR analysis; format: functional
Mus musculus [14] = experiment: In-vivo agonist activity at REV-ERBalpha in experimental autoimmune encephalomyelitis C57BL/6 mouse model assessed as reduction in clock mRNA expression by RT-PCR analysis; format: functional
Th17 = experiment: Downregulation of IL-17A expression in human Th17 cells; format: functional, cell-based; conditions: dose 1.25-10 µM
[15] = Cytotoxicity against human Th17 cells assessed as reduction in cell viability at 1.25 to 10 uM; format: toxicity, cell-based; conditions: th17, 10 µM, dose 1.25-10 µM

Structure (SMILES)	EC50 [1] [nM]	half-life [2] [min]	half-life [3] [min]	also measured
CC(C)Cn1cc(CCNS(=O)(=O)N(C)C)c2ccc(-c3cncnc3)cc21	2900			
CC(C)Cn1cc(CCNS(=O)(=O)N(C)C)c2ccc(-c3cccnc3)cc21	160			inhibition at 10 µM (CYP3A4): 96%
CC(C)Cn1cc(CCNS(=O)(=O)N(C)C)c2ccccc21	990			
CC(C)Cn1cc(CCNS(=O)(=O)C2CC2)c2ccc(-c3ccccc3C(F)(F)F)cc21		3	4	
CC(C)Cn1cc(CNS(=O)(=O)C2CC2)c2ccc(-c3ccccc3C(F)(F)F)cc21		5	5	
CC(C)Cn1cc(C(C)(C)NS(=O)(=O)C2CC2)c2ccc(-c3ccccc3C(F)(F)F)cc21		3	80	
CC(C)Cn1cc(CCNS(=O)(=O)N(C)C)c2ccc(-c3cnn(C)c3)cc21	> 5000			
CC(C)Cn1cc(CCNS(=O)(=O)N(C)C)c2ccc(-c3ccccn3)cc21	1000			inhibition at 10 µM (CYP3A4): 96%
CC(C)Cn1cc(CCNS(=O)(=O)N(C)C)c2ccc(-c3ccccc3)cc21				inhibition at 10 µM (CYP3A4): 22%

Now from value to compound, other results behind:

EC50 [1] [nM]	half-life [2] [min]	half-life [3] [min]	Structure (SMILES)	also measured
7	10	9	CC(C)Cn1cc(C(C)NS(=O)(=O)C2CC2)c2ccc(-c3ccccc3C(F)(F)F)cc21 (stereo not given)	
25			CC(C)Cn1cc(CCNS(=O)(=O)C2CC2)c2ccc(-c3ccncc3)cc21	
110	32	76	CC(C)Cn1cc(C(NS(=O)(=O)C2CC2)C(F)(F)F)c2ccc(-c3ccccc3C(F)(F)F)cc21 (stereo not given)	inhibition at 10 µM (CYP3A4): < 30%; Cmax [4]: 12.2 µM; Cmax [5]: ~0.8 µM; EC50 [6]: 500 nM; Activity [7]: inactive; inhibition at 10 µM (CYP2D6): < 30%; inhibition at 10 µM (CYP1A2): < 30%; inhibition at 10 µM (CYP2C9): < 30%; Activity (Mus musculus [8]): Active; Activity (Mus musculus [9]): Active; Activity [10]: Non-Toxic; Activity (Mus musculus [11]): Active; Activity (Mus musculus [12]): Active; Activity (Mus musculus [13]): Active; Activity (Mus musculus [14]): Active; Activity (Th17): Active; Activity [15]: Non-Toxic
790			CC(C)Cn1cc(CCNS(=O)(=O)N(C)C)c2ccc(-c3ccc(F)cc3)cc21	
370			CC(C)Cn1cc(CCNS(=O)(=O)N(C)C)c2ccc(-c3cccc(C#N)c3)cc21	

From ChEMBL document CHEMBL5370656, “Structure-Activity Relationship and Biological Investigation of a REV-ERBα-Selective Agonist SR-29065 (34) for Autoimmune Disorders” (J Med Chem, 2023)
